Laboratory results published in paper PMC7673538 (PLoS Biology, 2020).
Several values for one entry are separate records, joined by “and”; a condition that tells them apart may be missing. Equal values may be shown once. Read-outs that look alike come from different tables or passages of the source.

How the values were obtained:
EV-A71 = assay: microbe, parasite or virus in culture; type: cell-based, enterovirus A71; conditions: for EC50: Enterovirus A
CV-B3 (strain Nancy) = type: cell-based, coxsackievirus B3
HRV-B14 = type: cell-based, human rhinovirus; conditions: compound concentration 0.1 µM
HRV-A2 [1] = type: cell-based, human rhinovirus
EV-A71 (strain BrCr) = type: cell-based, enterovirus A71
HRV-A2 [2] = assay: microbe, parasite or virus in culture; type: cell-based, human rhinovirus; conditions: for EC50: Human rhinovirus sp.
EV-D68 = assay: microbe, parasite or virus in culture; type: cell-based, enterovirus D68; conditions: for EC50: Enterovirus D
[3] = system: representative EVs and RVs; type: cell-based
in vitro = conditions: monkey

For `COc1ccc(N(Cc2ccc(F)cc2)C(=O)c2ccco2)cc1` [Compound 1, N-(4-fluorobenzyl)-N-(4-methoxyphenyl)furan-2-carboxamide], the “Figure 7 dose-response raw data, EV-A71 (triplicate values)” value (“Figure 7 dose-response raw data, EV-A71” below) (EV-A71; Concentration 0.0412 µM) was 13.4087 and 20.6785 and 25.0404, the “Figure 7 dose-response raw data, EV-A71” value (EV-A71; Concentration 0.1235 µM) was 12.0987 and 12.2161 and 13.2733 and the “Figure 7 dose-response raw data, EV-A71” value (EV-A71; Concentration 0.3704 µM) was 11.5913 and 20.0727 and 21.6478. For the same compound, the “Figure 7 dose-response raw data, EV-A71” value (EV-A71; Concentration 1.1111 µM) was 13.4087 and 20.6785 and 25.0404, the “Figure 7 dose-response raw data, EV-A71” value (EV-A71; Concentration 3.3333 µM) was 12.0987 and 12.2161 and 13.2733 and the “Figure 7 dose-response raw data, EV-A71” value (EV-A71; Concentration 11.1111 µM) was 11.5913 and 20.0727 and 21.6478. The “Figure 7 dose-response raw data, EV-A71” value (EV-A71; Concentration 33.3333 µM) was 13.4087 and 20.6785 and 25.0404, the “Figure 7 dose-response raw data, EV-A71” value (EV-A71; Concentration 100 µM) was 11.5913 and 20.0727 and 21.6478 and the EC50 (EV-A71; EVA71, HeLa R19, read-out: EC50 EV-A71) was > 30 µM. The EC50 (EV-A71; EVA71, HeLa R19, read-out: EC50 EV-A71 Average) was > 30 µM, the EC50 (EV-A71; EVA71, HeLa R19, read-out: EC50 EV-A71 Experiement 3) was > 30 µM and the EC50 (EV-A71; EVA71, HeLa R19, read-out: EC50 EV-A71 Experiment 1) was > 30 µM. The EC50 (EV-A71; EVA71, HeLa R19, read-out: EC50 EV-A71 Experiment 2) was > 30 µM, the EC50 (EV-A71; EVA71, HeLa R19, read-out: EC50 EV-A71 strain BrCr) was > 30 µM and the EC50 (EV-A71; EVA71, HeLa R19, read-out: EC50 EV-A71 strain TW/2728/04) was > 30 µM. The EC50 (EV-A71; EVA71, HeLa R19, read-out: EC50 EV-A71 strain TW/2945/98) was > 30 µM, the EC50 (EV-A71; EVA71, HeLa R19, read-out: EC50 EV-A71 strain TW/70811/08) was > 30 µM and the EC50 (EV-A71; EVA71, HeLa R19, read-out: EC50 EV-A71 strain TW/72232/04) was > 30 µM. The EC50 (EV-A71; EVA71, HeLa R19, read-out: EC50 EV-A71 strain TW/96016/08) was > 30 µM, the “virus titer, TCID50/ml (Figure 2A)” value (CV-B3 (strain Nancy); compound concentration 1 µM) was 1000000000 TCID50/ml and the “virus titer, TCID50/ml (Figure 2A)” value (CV-B3 (strain Nancy); compound concentration 10 µM) was 31622.8 TCID50/ml and 16982.4 TCID50/ml and 21379.6 TCID50/ml. For the same compound, the “virus titer, TCID50/ml (Figure 2A)” value (HRV-B14) was 10000000 TCID50/ml, the “cytotoxic effect (in words)” value (HeLa R19 cells) was “did not show any adverse cytotoxic effect” and the “virus titer, TCID50/ml (Figure 2A)” value (HRV-A2 [1]; compound concentration 0.1 µM) was 316278 TCID50/ml and 312278 TCID50/ml. The “virus titer, TCID50/ml (Figure 2A)” value (HRV-A2 [1]; compound concentration 0.3 µM) was 169824 TCID50/ml and 100000 TCID50/ml, the “virus titer, TCID50/ml (Figure 2A)” value (HRV-A2 [1]; compound concentration 3 µM) was 354813 TCID50/ml and the “virus titer, TCID50/ml (Figure 2A)” value (HRV-A2 [1]; compound concentration 100 µM) was 169824 TCID50/ml and 188844 TCID50/ml. The “virus titer, TCID50/ml (Figure 2A)” value (HRV-A2 [1]; compound concentration 150 µM) was 354813 TCID50/ml and 588844 TCID50/ml, the “virus titer, TCID50/ml (Figure 2A)” value (EV-A71 (strain BrCr); compound concentration 0.001 µM) was 316228 TCID50/ml and the “virus titer, TCID50/ml (Figure 2A)” value (EV-A71 (strain BrCr); compound concentration 0.01 µM) was 316228 TCID50/ml. For the same compound, the “virus titer, TCID50/ml (Figure 2A)” value (EV-A71 (strain BrCr); compound concentration 0.1 µM) was 316228 TCID50/ml, the “virus titer, TCID50/ml (Figure 2A)” value (EV-A71 (strain BrCr); compound concentration 0.3 µM) was 316228 TCID50/ml and the “Figure 7 dose-response raw data, HRV-A2 (triplicate values)” value (from here on “Figure 7 dose-response raw data, HRV-A2”) (HRV-A2 [2]; Concentration 0.0412 µM) was 7.118 and 8.563 and 11.1417. The “Figure 7 dose-response raw data, HRV-A2” value (HRV-A2 [2]; Concentration 0.1235 µM) was 6.499 and 7.221 and 5.983, the “Figure 7 dose-response raw data, HRV-A2” value (HRV-A2 [2]; Concentration 0.3704 µM) was 11.7607 and 8.975 and 8.666 and the “Figure 7 dose-response raw data, HRV-A2” value (HRV-A2 [2]; Concentration 3.3333 µM) was 6.087 and 4.436 and 5.983. The “Figure 7 dose-response raw data, HRV-A2” value (HRV-A2 [2]; Concentration 33.3333 µM) was 4.849 and 8.666 and 8.769, the “Figure 7 dose-response raw data, HRV-A2” value (HRV-A2 [2]; Concentration 100 µM) was 4.849 and 8.666 and 8.769 and the EC50 (HRV-A2 [2]; HRVA2, HeLa R19, read-out: EC50 HRV-A2) was > 30 µM. The EC50 (HRV-A2 [2]; HRVA2, HeLa R19, read-out: EC50 HRV-A2 Average) was > 30 µM, the EC50 (HRV-A2 [2]; HRVA2, HeLa R19, read-out: EC50 HRV-A2 Experiement 3) was > 30 µM and the EC50 (HRV-A2 [2]; HRVA2, HeLa R19, read-out: EC50 HRV-A2 Experiment 1) was > 30 µM. For the same compound, the EC50 (HRV-A2 [2]; HRVA2, HeLa R19, read-out: EC50 HRV-A2 Experiment 2) was > 30 µM, the “inhibition of EV-D68 replication (in words)” value (EV-D68) was “antiviral activity” and the “Figure 7 dose-response raw data, EV-D68 (triplicate values)” value (“Figure 7 dose-response raw data, EV-D68” for short) (EV-D68; Concentration 0.001 µM) was 8.529 and 8.161 and 15.8928. The “Figure 7 dose-response raw data, EV-D68” value (EV-D68; Concentration 0.0412 µM) was 9.388 and 8.898 and 11.4747, the “Figure 7 dose-response raw data, EV-D68” value (EV-D68; Concentration 0.1235 µM) was 8.529 and 8.161 and 15.8928 and the “Figure 7 dose-response raw data, EV-D68” value (EV-D68; Concentration 0.3704 µM) was 8.529 and 8.161 and 15.8928. The “Figure 7 dose-response raw data, EV-D68” value (EV-D68; Concentration 1.1111 µM) was 105.527 and 109.089 and 109.58, the “Figure 7 dose-response raw data, EV-D68” value (EV-D68; Concentration 3.3333 µM) was 104.422 and 100.246 and 109.335 and the “Figure 7 dose-response raw data, EV-D68” value (EV-D68; Concentration 10 µM) was 100.368 and 102.702 and 104.422. For the same compound, the EC50 (EV-D68; EVD68, HeLa R19, read-out: EC50 EV-D68 Experiement 3) was 0.31 µM, the EC50 (EV-D68; EVD68, HeLa R19, read-out: EC50 EV-D68 Experiment 1) was 0.25 µM and the EC50 (EV-D68; EVD68, HeLa R19, read-out: EC50 EV-D68 Experiment 2) was 0.39 µM. The EC50 (EV-D68; EVD68, HeLa R19, read-out: EC50 EV-D68 strain 4310900947) was 3.65 ± 0.34 µM, the EC50 (EV-D68; EVD68, HeLa R19, read-out: EC50 EV-D68 strain 4310901348) was 4.47 ± 0.13 µM and the EC50 (EV-D68; EVD68, HeLa R19, read-out: EC50 EV-D68 strain 4310902042) was 4.05 ± 0.65 µM. For the same compound, the EC50 (EV-D68; EVD68, HeLa R19, read-out: EC50 EV-D68 strain 4310902284) was 2.23 ± 0.12 µM, the EC50 (EV-D68; EVD68, HeLa R19, read-out: EC50 EV-D68 strain 4311000742) was 3.83 ± 0.4 µM and the EC50 (EV-D68; EVD68, HeLa R19, read-out: EC50 Exp2) was 1.95 µM. The “inhibition of contemporary/clinical isolates of EV-A71, CV-A24v and EV-D68 (in words)” value [3] was “only inhibited the contemporary strains of EV-D68”, the CC50 (in vitro; CC50) was 50.65 ± 0.32 µM and the CC50 (in vitro; CC50 BGM Average) was 50.6 µM. It also gave a CC50 (in vitro; Exp 1 CC50 BGM) of 51 µM and a CC50 (in vitro; Exp 2 CC50 BGM) of 50.3 µM.
